Data from the OPERA property sets (Mansouri et al. 2018).

Conditions: not given

| Compound | melting point [°C] | boiling point [°C] | ready biodegradability | log10 Koa | log10 Henry constant (atm·m³/mol) | log10 vapour pressure (mmHg) | log10 Koc (L/kg) |
| --- | --- | --- | --- | --- | --- | --- | --- |
| CCN(CC)CC(=O)OCC(=O)[C@@]1(O)CC[C@H]2[C@@H]3CCC4=CC(=O)C=C[C@]4(C)[C@H]3[C@@H](O)C[C@@]21C | 176 |  |  |  |  |  |  |
| Brc1ccc(Br)c2ccccc12 | 83 | 310 |  |  |  |  |  |
| CCCCCCCCCCCCCCCC/C=C/C1CC(=O)OC1=O (stereo not drawn) |  |  | not readily biodegradable |  |  |  |  |
| CCCCCCCCCCCCCCCCCC(=O)Cl | 23 |  |  |  |  |  |  |
| Cc1ccc(Cl)c(N)c1 | 29.5 | 229 |  |  |  |  |  |
| Clc1cc(Cl)c(-c2c(Cl)c(Cl)cc(Cl)c2Cl)cc1Cl |  |  |  | 9.87 |  |  |  |
| Clc1cccc(-c2cc(Cl)cc(Cl)c2)c1 |  |  |  |  | -3.77 |  |  |
| CCC(=O)O[C@H]1CC[C@H]2[C@@H]3CC[C@H]4CC(=O)[C@H](C)C[C@]4(C)[C@H]3CC[C@]12C | 128 |  |  |  |  |  |  |
| OC(CCl)CCl | -4 | 176 | readily biodegradable |  |  | -0.125 |  |
| O=C1C(=O)c2cccc3cccc1c23 | 261 |  |  |  |  |  |  |
| FC(F)(F)C(F)(F)C(F)(F)C(F)(F)C(F)(F)C(F)(F)C(F)(F)C(F)(F)C(F)(F)F | -16 | 123 |  |  |  |  |  |
| c1ccc(Nc2ccccc2)cc1 | 52.9 | 302 | not readily biodegradable | 7.64 |  | -3.17 | 2.78 |
| O=[N+]([O-])c1ccc(Cl)cc1Cl | 34 | 258 | not readily biodegradable |  |  |  |  |
| C=CCc1cccc2ccccc12 |  | 266 |  |  |  |  |  |
| NC(=O)c1cnccn1 | 192 |  |  |  |  |  |  |
| FC(F)(Br)C(F)(Cl)Br (stereo not drawn) |  | 93 |  |  |  |  |  |
| c1cnccn1 | 55 | 115 | readily biodegradable |  |  | 1.03 |  |
| CCSCCSCC | 180 | 217 |  |  |  |  |  |
| Cc1cccc(NC(N)=O)c1 |  |  |  |  |  |  | 1.56 |
| CC(=O)c1c(C)c([N+](=O)[O-])c(C(C)(C)C)c([N+](=O)[O-])c1C | 136 |  |  |  |  |  |  |
| CC(=O)Nc1ccc(CC(=O)O)cc1 | 173 |  |  |  |  |  |  |
| OC[C@H]1O[C@H](O[C@H]2O[C@H](CO)[C@@H](O)[C@H](O)[C@H]2O)[C@H](O)[C@@H](O)[C@@H]1O | 203 |  |  |  |  |  |  |
| Cc1cccc(C)c1[N+](=O)[O-] | 15 | 226 |  |  |  |  |  |

| Compound | melting point [°C] | boiling point [°C] | ready biodegradability | log10 Koa | log10 Henry constant (atm·m³/mol) | log10 vapour pressure (mmHg) | log10 Koc (L/kg) |
| --- | --- | --- | --- | --- | --- | --- | --- |
| Cn1cccc1 |  | 115 | readily biodegradable |  |  | 1.33 |  |
| COc1cc(OC)cc(O[C@H]2O[C@H](CO)[C@@H](O)[C@H](O)[C@H]2O)c1 | 170 |  |  |  |  |  |  |
| COc1ccccc1C=C(C(=O)O)c1ccccc1 | 158 |  |  |  |  |  |  |
| NC(=O)OCC(O)COc1ccc(Cl)cc1 (stereo not drawn) | 90 |  |  |  |  |  |  |
| O=C[C@@H]1C[C@@H]2[C@@H]3[C@H]1[C@@]1(Cl)C(Cl)(Cl)[C@]3(Cl)[C@@]3(Cl)[C@@H]2[C@]31Cl |  |  |  |  |  | -6.7 |  |
| CCOC(=O)CC(=O)c1ccc(OC)cc1 |  |  | readily biodegradable |  |  |  |  |
| c1ccc(Cc2cccnc2)cc1 | 34 | 287 |  |  |  |  |  |
| CCCCI | -103 | 131 |  |  |  | 1.14 |  |
| Clc1ccc2c(c1)Oc1cc(Cl)c(Cl)cc1O2 | 162 |  |  | 9.14 |  | -7.05 |  |
| CCCCCCCOC(=O)CCCCCCC | -10.6 | 290 |  |  |  |  |  |
| CCC(=O)C1(c2cccc(O)c2)CCN(C)CC1 | 156 |  |  |  |  |  |  |
| CC(C)(O)c1ccccc1 | 36 | 202 |  |  |  |  |  |
| CCc1ccccc1N | -46.5 | 210 |  |  |  | -0.77 |  |
| CC(C)(C)C(=O)c1ccccc1 |  | 220 |  |  |  |  |  |
| CCCCCCCCCCCCSCCC(=O)OCC(COC(=O)CCSCCCCCCCCCCCC)(COC(=O)CCSCCCCCCCCCCCC)COC(=O)CCSCCCCCCCCCCCC |  |  | not readily biodegradable |  |  |  |  |
| COP(=S)(OC)Oc1ccc([N+](=O)[O-])c(C)c1 | 3.4 |  | readily biodegradable |  | -6.03 | -4.27 | 2.63 |
| O=C(O)c1ccco1 | 134 | 231 |  |  |  |  |  |
| CC1CNCCN1 (stereo not drawn) | 62 | 153 |  |  |  |  |  |
| N#C/C=C/C#N | 96.8 | 186 |  |  |  |  |  |
| Cc1cc(=O)[nH]o1 | 86.5 |  |  |  |  | -2.86 |  |
| COc1ccc2[nH]cc(CCN(C)C)c2c1 | 69.5 |  |  |  |  |  |  |
| COc1ccccc1N | 6.2 | 224 | readily biodegradable |  |  | -1.1 |  |
| NC(=O)c1ccccc1 | 129 | 290 |  |  | -9.61 |  | 1.46 |

| Compound | melting point [°C] | boiling point [°C] | ready biodegradability | log10 Koa | log10 Henry constant (atm·m³/mol) | log10 vapour pressure (mmHg) | log10 Koc (L/kg) |
| --- | --- | --- | --- | --- | --- | --- | --- |
| CC(=O)[C@H]1CC[C@H]2[C@@H]3CC[C@H]4C[C@H](O)CC[C@]4(C)[C@H]3CC[C@]12C | 174 |  |  |  |  |  |  |
| Clc1ccc2c(c1)Oc1cc(Cl)c(Cl)c(Cl)c1O2 | 172 |  |  |  | -5.12 | -8.12 |  |
| CC#CC(=O)OCC |  | 163 |  |  |  |  |  |
| O=C(NN=Cc1ccc([N+](=O)[O-])o1)c1ccc(O)cc1 | 298 |  |  |  |  |  |  |
| CC(C)C(=O)C(=O)O | 31.5 | 170 |  |  |  |  |  |
| O=C(Cl)C1CCCCC1 |  | 180 |  |  |  |  |  |
| C=C1CC[C@H](O)C/C1=C/C=C1\CCC[C@]2(C)[C@@H]([C@H](C)/C=C/[C@H](C)C(C)C)CC[C@@H]12 | 116 |  |  |  |  |  |  |
| C=CCC(=O)OCC |  | 119 |  |  |  |  |  |
| O=Cc1cccs1 |  | 197 |  |  |  |  |  |
| NNC(=O)c1ccccc1[N+](=O)[O-] | 124 |  |  |  |  |  |  |
| CCCO |  | 97.2 | readily biodegradable |  | -5.13 | 1.32 |  |
| Fc1nc(F)nc(F)n1 | -38 | 72.8 |  |  |  |  |  |
| COc1ccsc1CN(C(=O)CCl)c1c(C)cccc1C | 73 |  |  |  |  | -6.68 |  |
| CCCC(=O)O[C@H]1[C@H](C)O[C@@H](O[C@H]2[C@H](N(C)C)[C@@H](O)[C@H](O[C@H]3[C@@H](CC=O)C[C@@H](C)[C@@H](O)C=CC=CC[C@@H](C)OC(=O)C[C@@H](O)[C@@H]3OC)O[C@@H]2C)C[C@@]1(C)OC(=O)CC | 116 |  |  |  |  |  |  |
| NNc1ccccc1 | 19.6 | 244 |  |  |  | -1.58 |  |
| CCNc1cccc(O)c1 | 62 |  |  |  |  |  |  |
| O=C1c2ccccc2-c2ccc3c4c(ccc1c24)-c1ccccc1C3=O | 385 |  |  |  |  |  | 4.28 |
| CCOP(=S)(OCC)SCS(=O)C(C)(C)C (stereo not drawn) |  |  |  |  |  |  | 2.18 |
| CCOC(C)CO (stereo not drawn) |  | 140 |  |  |  |  |  |
| O=[N+]([O-])c1ccc2ccccc2c1 | 79 | 314 |  |  |  |  |  |
| CN(C)c1ccc(-c2ccc(N(C)C)cc2)cc1 | 194 |  |  |  |  |  |  |
| CCC(C)(CC(=O)O)CC(=O)O | 87 | 261 |  |  |  |  |  |
| Cc1ccnc(N)c1 | 100 |  |  |  |  |  |  |

| Compound | melting point [°C] | boiling point [°C] | ready biodegradability | log10 Koa | log10 Henry constant (atm·m³/mol) | log10 vapour pressure (mmHg) | log10 Koc (L/kg) |
| --- | --- | --- | --- | --- | --- | --- | --- |
| O=C(CCC(=O)OCc1ccccc1)OCc1ccccc1 | 49.5 |  |  |  |  |  |  |
| O=C(O)Cc1ccc([N+](=O)[O-])cc1 | 154 |  |  |  |  |  |  |
| CCCCCCCCCCCCCCC(=O)OC | 18.5 |  |  |  |  | -3.79 |  |
| Nc1ccc(N=Nc2ccccc2)c(N)n1 | 139 |  |  |  |  |  | 2.32 |
| CCCc1cccc(C)c1 | -82.5 | 182 |  |  |  | 0.425 |  |
| COc1ccc(Cl)cc1Cl | 28.5 | 232 |  |  |  |  |  |
| CC(C)CC(C)Nc1ccc(Nc2ccccc2)cc1 (stereo not drawn) |  |  | not readily biodegradable |  |  |  |  |
| CCCCN(CCCC)C(=O)COC(=O)c1ccccc1 | 25 |  |  |  |  |  |  |
| CC(C)(C)C(O)/C(=C\c1ccc(Cl)cc1Cl)n1cncn1 (stereo not drawn) | 147 |  |  |  |  | -4.43 |  |
| CC(=NO)c1ccccc1 | 60 | 245 |  |  |  |  |  |
| CC(C)C1CCCc2ccccc21 (stereo not drawn) |  |  | not readily biodegradable |  |  |  |  |
| CCCCCCCCCCCCOS(=O)(=O)[O-].[Na+] | 206 |  |  |  |  |  |  |
| O=Cc1cccc([N+](=O)[O-])c1 | 58.5 |  |  |  |  | -2.14 |  |
| CCC(CC)CC(C)C |  | 134 |  |  |  |  |  |
| c1ccc2c(c1)OCCOCCOCCOc1ccccc1OCCOCCOCCO2 | 104 |  |  |  |  |  |  |
| CC1CCCC(C)(C)C1=O (stereo not drawn) | -31.8 | 178 |  |  |  |  |  |
| C[C@H](CCC(=O)O)[C@H]1CC[C@H]2[C@@H]3CC[C@@H]4C[C@H](O)CC[C@]4(C)[C@H]3CC[C@]12C | 186 |  |  |  |  |  |  |
| NC(=O)c1ccc(C(F)(F)F)cc1 | 185 |  |  |  |  |  |  |
| c1ccc2sc(SN3CCOCC3)nc2c1 | 85 |  | not readily biodegradable |  |  | -5.48 |  |
| ClC(Cl)(Cl)C1CO1 (stereo not drawn) |  | 149 |  |  |  |  |  |
| CCC(C)CCBr (stereo not drawn) |  | 148 |  |  |  |  |  |
| Cc1ccc[n+]([O-])c1 | 39 |  |  |  |  |  |  |

Same assay, conditions: fish

| Compound | log10 biotransformation half-life (days) | log10 BCF |
| --- | --- | --- |
| Clc1cc(Cl)c(-c2c(Cl)c(Cl)cc(Cl)c2Cl)cc1Cl | 2.45 |  |
| c1ccc(Nc2ccccc2)cc1 | 0.35 | 2.18 |
| O=[N+]([O-])c1ccc(Cl)cc1Cl | 0.83 | 2.07 |
| Clc1ccccc1-c1c(Cl)ccc(Cl)c1Cl | 2.38 |  |
| COP(=S)(OC)Oc1ccc([N+](=O)[O-])c(C)c1 | 0.03 | 1.95 |
| Clc1cc(-c2cc(Cl)c(Cl)c(Cl)c2)cc(Cl)c1Cl |  | 5.97 |
| Clc1cc(Cl)c(-c2c(Cl)c(Cl)c(Cl)c(Cl)c2Cl)c(Cl)c1Cl | 2.66 |  |
